{
  "source": "patent US9040571B2",
  "about": "“Veterinary formulation for administration of a water-insoluble drug to a target animal through a water distribution system” (Elanco Animal Health Ireland Limited, priority 1999, dated 2015)",
  "test": "Particle size distribution by static light scattering, storage stability",
  "format": "physicochemical",
  "conditions": "45 mm lens, tap-water",
  "experimental": "Additionally, the particle size distribution of the original suspoemulsion was determined by static light scattering measurements using a 45 mm lens and tap-water. The stability of the undiluted suspoemulsion as measured by static light scattering measurements was followed over a period of 8 months. The results from the Turbiscan scan measurements were evaluated graphically. […] This implies that the diluted product stays stable under static conditions, like for example in the dosage tank of an automatic injection system.",
  "data": [
    {"molecule": "COC(=O)Nc1nc2cc(C(=O)c3ccc(F)cc3)ccc2[nH]1", "note": "[Fb powder, flubendazole]", "values": [
      {"measurement": "particle size distribution at t = 0, (D[3, 2] in μm)", "result": 1.53, "unit": "μm"}
    ]}
  ]
}
